According to patent US20230390183A1, “METHOD FOR IMPROVING SKIN CONDITION BY CRASSOCEPHALUM RABENS EXTRACT” (Greenyn Biotechnology Co., Ltd, priority 2022, published 2023):

System: skin (moisture, wrinkle, collagen density)
Test: Comparison of different functional components for skin-improving efficacy
Type: in vivo, human
From the text: In addition to the Crassocephalum rabens extract of the present invention, some other commercially available materials were collected, including oral hyaluronic acid (for continuous use of 20 days), ceramide, and collagen (for continuous use of 6 weeks), to compare their effects in maintaining skin hydrated, reducing wrinkles, and increasing collagen.

Substance: ceramide
- Moisture (%) (no duration of use printed): +2.7%
- Wrinkle (%) (no duration of use printed): −5.8%

Substance: collagen
- Moisture (%) (continuous use of 6 weeks): +25.5%
- Wrinkle (%) (continuous use of 6 weeks): No significant

Substance: hyaluronic acid [Oral hyaluronic acid]
- Moisture (%) (continuous use of 20 days): +21.5%
- Wrinkle (%) (continuous use of 20 days): −12.5%
